Assay results: patent US12221406B2, “Compounds as NLRP3 inflammasome inhibitors and compositions and uses thereof” (VIRGINIA COMMONWEALTH UNIVERSITY, priority 2019, dated 2025)

Target: T1, NLRP3 inflammasome (Mus musculus, UniProt Q8R4B8)
Assay: IL-1β release from mouse peritoneal macrophages upon LPS/ATP challenge (ELISA)
Format: cell-based
Parameters: endogenous in cells; host or cells: thioglycolate-elicited peritoneal macrophages from C57BL/6 mice
Conditions: not given
Experimental: Next, test compounds were added for 30 min. […] Primary peritoneal macrophages were similarly treated as described with J774A.1 cell line followed by ELISA analysis for IL-β production.
C57BL/6 mice were injected with 1 mL of 3% thioglycolate into the peritoneal cavity. Peritoneal cells were collected 3 days after injection by flushing the peritoneal cavity with cold PBS. The peritoneal cells were plated in complete RPMI1640 media containing 10% FBS, 100 U/mL penicillin, 100 μg/mL streptomycin. Floating cells were removed after 2 h and adherent peritoneal macrophages were used for experiments as described above.

T1 sequence (Q8R4B8 whole entry): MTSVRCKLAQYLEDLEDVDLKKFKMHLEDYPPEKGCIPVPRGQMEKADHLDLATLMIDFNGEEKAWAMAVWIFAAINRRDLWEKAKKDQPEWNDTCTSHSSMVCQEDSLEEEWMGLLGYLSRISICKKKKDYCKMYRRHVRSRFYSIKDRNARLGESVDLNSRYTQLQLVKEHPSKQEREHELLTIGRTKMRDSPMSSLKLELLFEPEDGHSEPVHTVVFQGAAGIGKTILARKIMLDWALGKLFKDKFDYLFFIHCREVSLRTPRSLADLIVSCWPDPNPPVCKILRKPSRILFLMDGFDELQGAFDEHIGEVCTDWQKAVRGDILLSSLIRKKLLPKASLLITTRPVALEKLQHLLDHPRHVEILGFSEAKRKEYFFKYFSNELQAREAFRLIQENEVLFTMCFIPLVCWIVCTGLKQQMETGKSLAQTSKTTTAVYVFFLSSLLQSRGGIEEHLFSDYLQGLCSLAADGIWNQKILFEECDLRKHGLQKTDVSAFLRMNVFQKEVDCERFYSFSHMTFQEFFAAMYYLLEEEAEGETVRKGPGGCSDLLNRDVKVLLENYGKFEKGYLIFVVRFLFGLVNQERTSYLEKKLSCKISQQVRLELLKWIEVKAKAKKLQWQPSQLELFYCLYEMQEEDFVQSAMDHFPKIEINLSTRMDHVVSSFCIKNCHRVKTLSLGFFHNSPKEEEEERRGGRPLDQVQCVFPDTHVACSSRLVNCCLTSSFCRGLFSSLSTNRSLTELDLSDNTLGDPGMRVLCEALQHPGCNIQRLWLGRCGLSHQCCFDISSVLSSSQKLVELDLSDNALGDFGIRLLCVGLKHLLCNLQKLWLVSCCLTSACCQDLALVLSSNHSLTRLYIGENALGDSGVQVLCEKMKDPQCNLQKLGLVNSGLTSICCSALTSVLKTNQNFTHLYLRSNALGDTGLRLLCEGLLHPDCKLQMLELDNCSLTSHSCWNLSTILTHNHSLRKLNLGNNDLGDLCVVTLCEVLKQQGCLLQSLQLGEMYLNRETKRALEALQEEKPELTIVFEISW

For `C#CCNS(=O)(=O)c1ccc(CCN(Cc2cc(Cl)ccc2OC)C(=O)C=C)cc1` [HL16, N-(5-chloro-2-methoxybenzyl)-N-(4-(N-(prop-2-yn-1-yl)sulfamoyl)phenethyl)acryl-amide], the “inhibitory activity in mouse peritoneal macrophages” value was “confirmed”.

Test system: EAE
Assay: EAE development in MOG-immunized mice
Format: in vivo, C57BL/6 mice
Conditions: 2 mg/kg i.p., from disease onset, to day 35
Description: C57BL/6 mice (n=10) were immunized subcutaneously in the dorsal flanks with MOG35-55 peptide emulsified in CFA on day 0. […] To assess the therapeutic effect in clinically relevant setting, treatment was started on disease onset (reduced tail tone, clinical score=1). Control mice received DMSO.

For `C#CCNS(=O)(=O)c1ccc(CCN(Cc2cc(Cl)ccc2OC)C(=O)C=C)cc1` [HL16, N-(5-chloro-2-methoxybenzyl)-N-(4-(N-(prop-2-yn-1-yl)sulfamoyl)phenethyl)acryl-amide], the “EAE induction (clinical score)” value was “substantially blocked induction of EAE”.

Same assay, conditions: 10 mg/kg i.p., from disease onset, to day 35

`C#CCNS(=O)(=O)c1ccc(CCN(Cc2cc(Cl)ccc2OC)C(=O)C=C)cc1` [HL16, N-(5-chloro-2-methoxybenzyl)-N-(4-(N-(prop-2-yn-1-yl)sulfamoyl)phenethyl)acryl-amide] was tested, and the “EAE induction (clinical score)” value was “substantially blocked induction of EAE”.

Target: T1, NLRP3 inflammasome
Assay: IL-1β release from J774A.1 cells upon LPS/ATP stimulation (ELISA)
Conditions: not given

`CNS(=O)(=O)c1ccc(CCN(Cc2cc(Cl)ccc2OC)C(=O)Cc2ccccc2)cc1` [SZ-N3I-12] and `COc1ccc(CNS(=O)(=O)c2ccc(CCN(Cc3cc(Cl)ccc3OC)C(=O)Cc3ccccc3)cc2)cc1` [SZ-N3I-22] cannot be ordered by IC50: < 1000 nM for the first, < 1000 nM for the second.

`C=CCN(CCc1ccc(S(=O)(=O)NC)cc1)Cc1cc(Cl)ccc1OC` [SZ-N3I-14] and `CCCN(CCc1ccc(S(=O)(=O)NC)cc1)Cc1cc(Cl)ccc1OC` [SZ-N3I-20] fall in the same range of IC50: 1000 to 10000 nM for the first, 1000 to 10000 nM for the second.

`CCCCCC(=O)N(CCc1ccc(S(=O)(=O)NC)cc1)Cc1cc(Cl)ccc1OC` [SZ-N3I-16] and `CCC(=O)N(CCc1ccc(S(=O)(=O)NC)cc1)Cc1cc(Cl)ccc1OC` [SZ-N3I-18] fall in the same range of IC50: 1000 to 10000 nM for the first, 1000 to 10000 nM for the second.

First: CCOc1ccc(Cl)cc1CN(CCc1ccc(S(=O)(=O)NCc2ccc(OC)cc2)cc1)C(=O)Cc1ccccc1 [SZ-N3I-23]
Second: CCCOc1ccc(Cl)cc1CN(CCc1ccc(S(=O)(=O)NCc2ccc(OC)cc2)cc1)C(=O)Cc1ccccc1 [SZ-N3I-24]
The IC50 of the first is higher: 1000 to 10000 nM for the first, < 1000 nM for the second.

Compared with `COc1ccc(CNS(=O)(=O)c2ccc(CCN(Cc3cc(Cl)ccc3OCC3CC3)C(=O)Cc3ccccc3)cc2)cc1` [SZ-N3I-25], `C=CCOc1ccc(Cl)cc1CN(CCc1ccc(S(=O)(=O)NCc2ccc(OC)cc2)cc1)C(=O)Cc1ccccc1` [SZ-N3I-27] is lower in IC50: 1000 to 10000 nM for the first, < 1000 nM for the second. The second is the more potent here.

Going from `C=CC(=O)N(CCc1ccc(S(=O)(=O)NCc2ccc(OC)cc2)cc1)Cc1cc(Cl)ccc1OC` [SZ-N3I-26] to `CCCCCCCOc1ccc(Cl)cc1CN(CCc1ccc(S(=O)(=O)NCc2ccc(OC)cc2)cc1)C(=O)Cc1ccccc1` [SZ-N3I-29], the IC50 rises from < 1000 nM to > 30000 nM.

First: COc1ccc(CNS(=O)(=O)c2ccc(CCN(Cc3cc(Cl)ccc3OCc3ccccc3)C(=O)Cc3ccccc3)cc2)cc1 [SZ-N3I-28]
Second: CCCOc1ccc(Cl)cc1CN(CCc1ccc(C(=O)NCc2ccc(OC)cc2)cc1)C(=O)Cc1ccccc1 [SZ-N3I-39]
The IC50 of the first is higher: 1000 to 10000 nM for the first, < 1000 nM for the second.

Compared with `CCCCN(CCCC)S(=O)(=O)c1ccc(CCN(Cc2cc(Cl)ccc2OC)C(=O)Cc2ccccc2)cc1` [SZ-N3I-30], `CCCCN(CCCC)S(=O)(=O)c1ccc(CCN(Cc2cc(Cl)ccc2OCCC)C(=O)Cc2ccccc2)cc1` [SZ-N3I-31] is higher in IC50: 1000 to 10000 nM for the first, > 30000 nM for the second.

`C=CCN(CCc1ccc(S(=O)(=O)NC)cc1)C(=O)c1cc(Cl)ccc1C(=O)c1ccccc1` [SZ-N3I-32] and `O=C(NCCc1ccc(S(=O)(=O)N2CCCC2)cc1)c1cc(Cl)ccc1C(=O)c1ccccc1` [SZ-N3I-64] fall in the same range of IC50: 1000 to 10000 nM for the first, 1000 to 10000 nM for the second.

`CNS(=O)(=O)c1cc(CCNC(=O)c2cc(Cl)ccc2OC)co1` [SZ-N3I-33] and `COc1ccc(Cl)cc1C(=O)NCCc1ccc(S(=O)(=O)NCCOCCOCCCCCCCl)cc1` [SZ-N3I-62] fall in the same range of IC50: 1000 to 10000 nM for the first, 1000 to 10000 nM for the second.

First: CCCOc1ccc(Cl)cc1CN(CCc1ccc(C(=O)OC)cc1)C(=O)Cc1ccccc1 [SZ-N3I-35]
Second: CCCOc1ccc(Cl)cc1CN(CCc1ccc(C(=O)NC)cc1)C(=O)Cc1ccccc1 [SZ-N3I-36]
The IC50 of the first is lower: < 1000 nM for the first, 1000 to 10000 nM for the second.

`C#CCNC(=O)c1ccc(CCN(Cc2cc(Cl)ccc2OCCC)C(=O)Cc2ccccc2)cc1` [SZ-N3I-37] and `C#CCNC(=O)c1ccc(CCN(Cc2cc(Cl)ccc2OCCC)C(=O)Cc2ccsc2)cc1` [SZ-N3I-61] cannot be ordered by IC50: < 1000 nM for the first, < 1000 nM for the second.

First: CCCCN(CCCC)C(=O)c1ccc(CCN(Cc2cc(Cl)ccc2OCCC)C(=O)Cc2ccccc2)cc1 [SZ-N3I-38]
Second: CCCOc1ccc(Cl)cc1CN(CCc1ccc(C(=O)OC)cc1)C(=O)Cc1ccsc1 [SZ-N3I-60]
The IC50 of the first is lower: < 1000 nM for the first, 1000 to 10000 nM for the second.

First: O=C(NCCc1ccc(S(=O)(=O)NCc2ccccc2)cc1)c1cc(Cl)ccc1C(=O)c1ccccc1 [SZ-N3I-63]
Second: O=C(NCCc1ccc(S(=O)(=O)NCc2ccccc2)cc1)c1cc(Cl)ccc1C(O)c1ccccc1 (centres unmarked) [SZ-N3I-65]
The IC50 of the first is lower: < 1000 nM for the first, 1000 to 10000 nM for the second.

`O=C(NCCc1ccc(S(=O)(=O)N2CCCC2)cc1)c1cc(Cl)ccc1C(O)c1ccccc1` (centres unmarked) [SZ-N3I-66] and `CCCOc1ccc(Cl)cc1CN(CCc1ccc(S(=O)(=O)N2CCNCC2)cc1)C(=O)Cc1ccsc1` [SZ-N3I-69] fall in the same range of IC50: 1000 to 10000 nM for the first, 1000 to 10000 nM for the second.

`C#CCNS(=O)(=O)c1ccc(CCN(CCCCC)Cc2cc(Cl)ccc2OCCC)cc1` [SZ-N3I-67] and `C#CCNS(=O)(=O)c1ccc(CCN(Cc2cc(Cl)ccc2OCCC)C(C)C)cc1` [SZ-N3I-68] fall in the same range of IC50: 1000 to 10000 nM for the first, 1000 to 10000 nM for the second.

`C#CCNS(=O)(=O)c1ccc(CCN(Cc2cc(Cl)ccc2OCCC)C(=O)C(N)C(C)C)cc1` (centres unmarked) [SZ-N3I-70] and `C#CCNS(=O)(=O)c1ccc(CCN(Cc2cc(Cl)ccc2OCCC)C(=O)[C@H](N)c2ccsc2)cc1` [SZ-N3I-84] fall in the same range of IC50: 1000 to 10000 nM for the first, 1000 to 10000 nM for the second.

`C#CCNS(=O)(=O)c1ccc(CCN(Cc2cc(Cl)ccc2OCCC)C(=O)[C@@H]2CCCN2)cc1` [SZ-N3I-71] and `C#CCNS(=O)(=O)c1ccc(CCN(Cc2cc(Cl)ccc2OCCC)C(=O)[C@H]2CCCN2)cc1` [SZ-N3I-72] fall in the same range of IC50: 1000 to 10000 nM for the first, 1000 to 10000 nM for the second.

`C#CCNS(=O)(=O)c1ccc(CCN(Cc2cc(Cl)ccc2OCCN2CCOCC2)C(=O)Cc2ccsc2)cc1` [SZ-N3I-73] and `C#CCNS(=O)(=O)c1ccc(CCN(Cc2cc(Cl)ccc2OCCO)C(=O)Cc2ccsc2)cc1` [SZ-N3I-74] fall in the same range of IC50: 1000 to 10000 nM for the first, 1000 to 10000 nM for the second.

First: C#CCNS(=O)(=O)c1ccc(CCN(Cc2cc(Cl)ccc2OCCC)C(=O)[C@H]2NCCS2)cc1 [SZ-N3I-75]
Second: C#CCNS(=O)(=O)c1ccc(CCN(Cc2cc(Cl)ccc2OCCC)C(=O)[C@@H](N)c2ccsc2)cc1 [SZ-N3I-85]
The IC50 of the first is higher: 1000 to 10000 nM for the first, < 1000 nM for the second. The second is the more potent here.

First: C#CCNS(=O)(=O)c1ccc(CCN(Cc2cc(Cl)ccc2OCCC)C(=O)[C@H](N)Cc2ccccc2)cc1 [SZ-N3I-77]
Second: C#CCNS(=O)(=O)c1ccc(CCN(Cc2cc(Cl)ccc2OCCC)C(=O)[C@@H](N)Cc2ccsc2)cc1 [SZ-N3I-79]
The IC50 of the first is higher: 1000 to 10000 nM for the first, < 1000 nM for the second.

`C#CCNS(=O)(=O)c1ccc(CCN(Cc2cc(Cl)ccc2OCCC)C(=O)[C@@H](N)Cc2cccs2)cc1` [SZ-N3I-78] and `C#CCNS(=O)(=O)c1ccc(CCN(Cc2cc(Cl)ccc2[N+](=O)[O-])C(=O)[C@@H](N)Cc2cccs2)cc1` [SZ-N3I-87] cannot be ordered by IC50: < 1000 nM for the first, < 1000 nM for the second.

`CCCOc1ccc(Cl)cc1CN(CCc1ccc(S(=O)(=O)N2CCOCC2)cc1)C(=O)Cc1ccsc1` [SZ-N3I-80] and `C#CCCC1(CCOc2ccc(Cl)cc2CN(CCc2ccc(S(=O)(=O)NCC#C)cc2)C(=O)Cc2ccsc2)N=N1` [SZ-N3I-82] cannot be ordered by IC50: < 1000 nM for the first, < 1000 nM for the second.

Compared with `C#CCNS(=O)(=O)c1ccc(CCN(Cc2cc(Cl)ccc2O)C(=O)Cc2ccsc2)cc1` [SZ-N3I-81], `C#CCNS(=O)(=O)c1ccc(CCN(Cc2cc(Cl)ccc2N)C(=O)Cc2ccsc2)cc1` [SZ-N3I-86] is higher in IC50: < 1000 nM for the first, 1000 to 10000 nM for the second. The first is the more potent here.

`C#CCNS(=O)(=O)c1ccc(CCN(Cc2cc(Cl)ccc2[N+](=O)[O-])C(=O)Cc2ccsc2)cc1` [SZ-N3I-83] and `C#CCNS(=O)(=O)c1ccc(CCN(Cc2cc(Cl)ccc2C(F)(F)F)C(=O)Cc2ccsc2)cc1` [SZ-N3I-89] cannot be ordered by IC50: < 1000 nM for the first, < 1000 nM for the second.

For `C#CCNS(=O)(=O)c1ccc(CCN(Cc2cccc3c2OCO3)C(=O)Cc2ccsc2)cc1` [SZ-N3I-88], the IC50 was < 1000 nM.

Target: T2, NLRC4 inflammasome (Mus musculus, UniProt Q3UP24)
T2 construct: endogenous in cells; host or cells: J774A.1 murine macrophage cell line (LPS + transfected flagellin)
Assay: NLRC4 inflammasome assay in J774A.1 cells (LPS/flagellin, IL-1β ELISA)
Format: cell-based, murine
Conditions: compound 10 μM
Experimental: (§1) J774A.1 cells were plated into a 96-well plate. […] Cells were treated with LPS (1 μg/mL) and test compounds for 1 h. Flagellin or poly-deoxyadenylic-deoxythymidylic acid sodium salt (Poly(dA:dT)) was used to induce the formation of the NLRC4 and the AIM2 inflammasomes.

With `C#CCNS(=O)(=O)c1ccc(CCN(Cc2cc(Cl)ccc2OC)C(=O)C=C)cc1` [HL16, N-(5-chloro-2-methoxybenzyl)-N-(4-(N-(prop-2-yn-1-yl)sulfamoyl)phenethyl)acryl-amide] the “effect on IL-1β production by NLRC4 inflammasome” value was “significantly inhibited”.

Target: T3, AIM2 inflammasome (Mus musculus, UniProt Q91VJ1)
T3 construct: endogenous in cells; host or cells: J774A.1 murine macrophage cell line (LPS + Poly(dA:dT))
T3 sequence (Q91VJ1 1-354): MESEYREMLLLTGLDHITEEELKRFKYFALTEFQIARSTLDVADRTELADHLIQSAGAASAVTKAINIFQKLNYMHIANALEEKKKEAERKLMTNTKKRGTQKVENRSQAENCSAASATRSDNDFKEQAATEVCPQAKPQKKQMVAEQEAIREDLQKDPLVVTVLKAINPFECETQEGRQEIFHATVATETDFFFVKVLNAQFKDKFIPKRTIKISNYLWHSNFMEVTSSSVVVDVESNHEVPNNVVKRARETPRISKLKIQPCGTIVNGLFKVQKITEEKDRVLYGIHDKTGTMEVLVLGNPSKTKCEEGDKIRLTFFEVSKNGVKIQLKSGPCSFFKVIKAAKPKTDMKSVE
Assay: AIM2 inflammasome assay in J774A.1 cells (LPS/Poly(dA:dT), IL-1β ELISA)
Format: cell-based, murine
Conditions: compound 10 μM
Experimental: as §1

`C#CCNS(=O)(=O)c1ccc(CCN(Cc2cc(Cl)ccc2OC)C(=O)C=C)cc1` [HL16, N-(5-chloro-2-methoxybenzyl)-N-(4-(N-(prop-2-yn-1-yl)sulfamoyl)phenethyl)acryl-amide] was tested, and the “effect on IL-1β production by AIM2 inflammasome” value was “significantly inhibited”.
